Reference: patent US20210269434A1, “TRICYCLIC COMPOUNDS AS INHIBITORS OF KRAS” (Incyte Corporation, priority 2020, published 2021)

Key:
[1] = biological target: KRAS G12C (Homo sapiens, UniProt P01116, G12C); experiment: GDP-GTP exchange assay (KRAS_G12C exchange); format: biochemical; settings: bodipy-GDP loaded KRAS G12C 2.5 nM, SOS1 150 nM, GppNHp; 2 hours pre-incubation, 2 hours reaction; read-out: G12C_exchange
Method in brief: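 Fluorescence exchange of bodipy-GDP for GppNHp, SOS1-driven, read at 485/520 nm; IC50 from four-parameter variable-slope fit. Both mutants used 2.5 nM final labelled protein and a 2 h compound pre-incubation. G12C reaction had 500 uM GppNHp and 150 nM SOS1 for 2 h; G12D ran 4 h.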

[2] = tested on: MIA PaCa-2 (KRAS G12C) cells; experiment: Cellular pERK HTRF assay (KRAS_G12C pERK); format: cell-based, human; settings: Homo sapiens, MIA PaCa-2, 4 hours incubation, read-out: G12C_pERK
Method in brief: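 MIA PaCa-2 cells plated overnight, then exposed to compound for 4 h at 37 °C (G12C compounds). Phospho-ERK1/2 measured in lysates by HTRF (665/620 nm) after overnight antibody incubation; IC50 from percent inhibition versus log concentration.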

Chain of KRAS G12C (P01116 1-188 isoform P01116-2 G12C): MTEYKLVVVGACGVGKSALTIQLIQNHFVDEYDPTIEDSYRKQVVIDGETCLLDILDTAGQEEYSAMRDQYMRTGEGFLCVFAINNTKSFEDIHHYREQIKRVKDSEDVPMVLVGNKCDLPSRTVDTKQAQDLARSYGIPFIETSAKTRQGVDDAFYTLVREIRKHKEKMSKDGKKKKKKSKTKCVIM

Row | SMILES | IC50 [1] [nM] | IC50 [2] [nM]
1 | C=CC(=O)N1CC[C@H](n2nnc3c(OC[C@@H]4CCCN4C)nc4c(Cl)c(-c5ccc(F)c6cccnc56)c(Cl)cc4c32)C[C@H]1CC#N (single isomer, unassigned) [Example 276a] | ≤ 100 | ≤ 100
2 | CC#CC(=O)N1CC[C@H](n2nnc3c(N4CC(N(C)C)C4)nc4c(Cl)c(-c5cccc6cccnc56)c(Cl)cc4c32)C[C@H]1CC#N (single isomer, unassigned) [Example 277a] | ≤ 100 | ≤ 100
3 | CC#CC(=O)N1CC[C@H](n2nnc3c(OC[C@@H]4CCCN4C)nc4c(Cl)c(-c5cccc6cccnc56)c(Cl)cc4c32)C[C@H]1CC#N (single isomer, unassigned) [Example 279a] | ≤ 100 | ≤ 100
4 | CC#CC(=O)N1CC[C@H](n2nnc3c(OC[C@@H]4CCCN4C)nc4c(Cl)c(-c5cc(F)cc6cccnc56)c(Cl)cc4c32)C[C@H]1CC#N (single isomer, unassigned) [Example 280a] | ≤ 100 | ≤ 100
5 | C=CC(=O)N1CC[C@H](n2nnc3c(N4CC(N(C)C)C4)nc4c(Cl)c(-c5cccc6cccnc56)c(Cl)cc4c32)C[C@H]1CC#N (single isomer, unassigned) [Example 283a] | ≤ 100 | ≤ 100
6 | C=CC(=O)N1CC[C@H](n2nnc3c(N4CC(N(C)C)C4)nc4c(Cl)c(-c5cc(F)cc6cccnc56)c(Cl)cc4c32)C[C@H]1CC#N (single isomer, unassigned) [Example 284a] | ≤ 100 | ≤ 100
7 | C=CC(=O)N1CC[C@H](n2nnc3c(OC[C@@H]4CCCN4C)nc4c(Cl)c(-c5cccc6cccnc56)c(Cl)cc4c32)C[C@H]1CC#N (single isomer, unassigned) [Example 288a] | ≤ 100 | ≤ 100
8 | C=CC(=O)N1CC[C@H](n2nnc3c(OC[C@@H]4CCCN4C)nc4c(Cl)c(-c5cc(F)cc6cccnc56)c(Cl)cc4c32)C[C@H]1CC#N (single isomer, unassigned) [Example 289a] | ≤ 100 | ≤ 100
9 | C=CC(=O)N1CCC(n2cnc3c(N4CC(N(C)C)C4)nc4c(F)c(-c5cc(O)cc6ccccc56)c(Cl)cc4c32)CC1 [Example 9, 1-(4-(8-chloro-4-(3-(dimethylamino)azetidin-1-yl)-6-fluoro-7-(3-hydroxy-naphthalen-1-yl)-1H-imidazo[4,5-c]quinolin-1-yl)piperidin-1-yl)prop-2-en-1-one] | ≤ 100 | 100 to 1000
10 | C=CC(=O)N1CCC(n2c(=O)[nH]c3c(OC[C@@H]4CCCN4C)nc4c(F)c(-c5cc(O)cc6ccccc56)c(Cl)cc4c32)CC1 [Example 10, 1-(1-Acryloylpiperidin-4-yl)-8-chloro-6-fluoro-7-(3-hydroxynaphthalen-1-yl)-4-(((S)-1-methylpyrrolidin-2-yl)methoxy)-1,3-dihydro-2H-imidazo[4,5-c]quinolin-2-one] | ≤ 100 | 100 to 1000
11 | C=CC(=O)N1CCC(n2cnc3c(-c4cc(O)cc5ccccc45)nc4c(F)c(-c5cc(O)cc6ccccc56)c(Cl)cc4c32)CC1 [Example 11, 1-(4-(8-chloro-6-fluoro-4,7-bis(3-hydroxynaphthalen-1-yl)-1H-imidazo[4,5-c]quinolin-1-yl)piperidin-1-yl)prop-2-en-1-one] | ≤ 100 | 100 to 1000
12 | C=CC(=O)N1CCC(n2cnc3c(-c4c(O)cccc4F)nc4c(F)c(-c5c(O)cccc5F)c(Cl)cc4c32)CC1 [Example 12, 1-(4-(8-chloro-6-fluoro-4,7-bis(2-fluoro-6-hydroxyphenyl)-1H-imidazo[4,5-c]-quinolin-1-yl)piperidin-1-yl)prop-2-en-1-one] | 100 to 1000 | 1000 to 5000
13 | C=CC(=O)N1CCC(n2cnc3cnc4c(F)c(-c5c(O)cccc5F)c(Cl)cc4c32)CC1 [Example 13, 1-(4-(8-Chloro-6-fluoro-7-(2-fluoro-6-hydroxyphenyl)-1H-imidazo[4,5-c]-quinolin-1-yl)piperidin-1-yl)prop-2-en-1-one] | 100 to 1000 | 1000 to 5000
14 | C=CC(=O)N1CC[C@H](n2cnc3c(N4CC(N(C)C)C4)nc4c(F)c(-c5cccc(C)c5C)c(Cl)cc4c32)C[C@H]1CC#N [Example 16, 2-((2S,4S)-1-acryloyl-4-(8-chloro-4-(3-(dimethylamino)azetidin-1-yl)-7-(2,3-dimethylphenyl)-6-fluoro-1H-imidazo[4,5-c]quinolin-1-yl)piperidin-2-yl)acetonitrile] | ≤ 100 | ≤ 100
15 | C=CC(=O)N1CC[C@H](n2cnc3c(N4CC(N(C)C)C4)nc4c(F)c(-c5cccc(C#N)c5C)c(Cl)cc4c32)C[C@H]1CC#N [Example 17, 3-(1-((2S,4S)-1-acryloyl-2-(cyanomethyl)piperidin-4-yl)-8-chloro-4-(3-(dimethylamino)azetidin-1-yl)-6-fluoro-1H-imidazo[4,5-c]quinolin-7-yl)-2-methylbenzonitrile] | ≤ 100 | ≤ 100
16 | C=CC(=O)N1CC[C@H](n2cnc3c(N4CC(N(C)C)C4)nc4c(F)c(-c5cccc(F)c5C)c(Cl)cc4c32)C[C@H]1CC#N [Example 18, 2-((2S,4S)-1-acryloyl-4-(8-chloro-4-(3-(dimethylamino)azetidin-1-yl)-6-fluoro-7-(3-fluoro-2-methylphenyl)-1H-imidazo[4,5-c]quinolin-1-yl)piperidin-2-yl)acetonitrile] | ≤ 100 | ≤ 100
17 | C=CC(=O)N1CC[C@H](n2cnc3c(N4CC(N(C)C)C4)nc4c(F)c(-c5cccc(C)c5Cl)c(Cl)cc4c32)C[C@H]1CC#N [Example 19, 2-((2S,4S)-1-acryloyl-4-(8-chloro-7-(2-chloro-3-methylphenyl)-4-(3-(dimethylamino)azetidin-1-yl)-6-fluoro-1H-imidazo[4,5-c]quinolin-1-yl)piperidin-2-yl)acetonitrile] | ≤ 100 | ≤ 100
18 | C=CC(=O)N1CC[C@H](n2cnc3c(N4CC(N(C)C)C4)nc4c(F)c(-c5ccccc5C)c(Cl)cc4c32)C[C@H]1CC#N [Example 20, 2-((2S,4S)-1-acryloyl-4-(8-chloro-4-(3-(dimethylamino)azetidin-1-yl)-6-fluoro-7-(o-tolyl)-1H-imidazo[4,5-c]quinolin-1-yl)piperidin-2-yl)acetonitrile] | ≤ 100 | ≤ 100
19 | C=CC(=O)N1CC[C@H](n2cnc3c(N4CC(N(C)C)C4)nc4c(F)c(-c5cc(O)cc6ccccc56)c(Cl)cc4c32)C[C@H]1C(N)=O [Example 21, (2S,4S)-1-acryloyl-4-(8-chloro-4-(3-(dimethylamino)azetidin-1-yl)-6-fluoro-7-(3-hydroxynaphthalen-1-yl)-1H-imidazo[4,5-c]quinolin-1-yl)piperidine-2-carboxamide] | ≤ 100 | ≤ 100
20 | C=CC(=O)N1CC[C@H](n2cnc3c(N4CC(N(C)C)C4)nc4c(F)c(-c5cc(O)cc6ccccc56)c(Cl)cc4c32)C[C@H]1C#N [Example 22, (2S,4S)-1-acryloyl-4-(8-chloro-4-(3-(dimethylamino)azetidin-1-yl)-6-fluoro-7-(3-hydroxynaphthalen-1-yl)-1H-imidazo[4,5-c]quinolin-1-yl)piperidine-2-carbonitrile] | ≤ 100 | ≤ 100
21 | C=CC(=O)N1CC(n2c(=O)[nH]c3c(=O)n(-c4c(C)ccnc4C(C)C)c4nc(-c5cc(O)cc6ccccc56)c(F)cc4c32)C1 [Example 26, 1-(1-acryloylazetidin-3-yl)-8-fluoro-7-(3-hydroxynaphthalen-1-yl)-5-(2-isopropyl-4-methylpyridin-3-yl)-3,5-dihydro-1H-imidazo[4,5-c][1,8]naphthyridine-2,4-dione] | ≤ 100 | 1000 to 5000
22 | C=CC(=O)N1CC(n2c(=O)n(C[C@@H]3CCCN3C)c3c(=O)n(-c4c(C)ccnc4C(C)C)c4nc(-c5cc(O)cc6ccccc56)c(F)cc4c32)C1 [Example 27, (S)-1-(1-acryloylazetidin-3-yl)-8-fluoro-7-(3-hydroxynaphthalen-1-yl)-5-(2-isopropyl-4-methylpyridin-3-yl)-3-((1-methylpyrrolidin-2-yl)methyl)-3,5-dihydro-1H-imidazo[4,5-c][1,8]naphthyridine-2,4-dione] | 100 to 1000 | 1000 to 5000
23 | C=CC(=O)N1C[C@H](n2cnc3c(N4CC(N(C)C)C4)nc4c(F)c(-c5cc(O)cc6ccccc56)c(Cl)cc4c32)C[C@@H]1CC#N [Example 32, 2-((2R,4R)-1-acryloyl-4-(8-chloro-4-(3-(dimethylamino)azetidin-1-yl)-6-fluoro-7-(3-hydroxynaphthalen-1-yl)-1H-imidazo[4,5-c]quinolin-1-yl)pyrrolidin-2-yl)acetonitrile] | ≤ 100 | ≤ 100
24 | C=CC(=O)N1CC[C@H](n2cnc3c(N4CC(N(C)C)C4)nc4c(F)c(-c5ccccc5)c(Cl)cc4c32)C[C@H]1CC#N [Example 45, 2-((2S,4S)-1-acryloyl-4-(8-chloro-4-(3-(dimethylamino)azetidin-1-yl)-6-fluoro-7-phenyl-1H-imidazo[4,5-c]quinolin-1-yl)piperidin-2-yl)acetonitrile] | ≤ 100 | ≤ 100
25 | C=CC(=O)N1CC[C@H](n2cnc3c(N4CC(N(C)C)C4)nc4c(F)c(-c5cccc6ccccc56)c(Cl)cc4c32)C[C@H]1CC#N [Example 46, 2-((2S,4S)-1-acryloyl-4-(8-chloro-4-(3-(dimethylamino)azetidin-1-yl)-6-fluoro-7-(naphthalen-1-yl)-1H-imidazo[4,5-c]quinolin-1-yl)piperidin-2-yl)acetonitrile] | ≤ 100 | ≤ 100
